{"source": "patent US20230172901A1", "about": "“COMPOSITIONS AND METHODS FOR THE PROPHYLAXIS AND TREATMENT OF FIBROTIC AND INFLAMMATORY CONDITIONS” (GRETALS AUSTRALIA PTY LTD, priority 2020, published 2023)", "key": {"[1]": {"system": "sheep model for pulmonary fibrosis, bleomycin-injured lung segments", "assay": "Example 2: histopathology scoring (H&E; inflammation, fibrosis, overall pathology)", "type": "in vivo", "protocol": "Histopathology of lung parenchyma was assessed by an experienced pathologist blinded to the treatment groups using a semi-quantitative scoring system. Briefly, the criteria used gives score indices separately for both inflammation and fibrosis pathology, and these score indices added together give an ‘overall pathology score’.\n(§1) In this study, a total of 10 sheep were used. Fibrosis in two lung segments of each sheep in a similar manner as performed in Example 1 herein. Using this procedure (as detailed further below) the fibrosis was confined to small, isolated regions in the lungs leaving the remaining 90-95% of the healthy unaffected lungs to undertake normal respiratory function.\nAll sheep (n=10) in the study were challenged with 2 single doses of bleomycin (3 units) per lung segment, a fortnight apart and the animals were kept for a little over 5 weeks after the final bleomycin dose. Bleomycin is a well-known agent for inducing fibrosis in the lungs. The administration procedure involves inserting a bronchoscope into lung segments in the right and left lung, and then slowly infusing the bleomycin into two segments as shown in FIG. 2 via the bronchoscope biopsy port.\nIn the study detailed in Example 1 herein, the dose-rate of pinocembrin was 7 mg pinocembrin per sheep, per week.\nFor control purposes the lung segment in the opposite lung was used as a bleomycin-positive, without drug, control, as indicated in FIG. 1. The bioactive molecules in vehicle, were delivered as 5 ml infusions through the biopsy port of the bronchoscope. Note that to nullify any small differences (e.g. physiological or anatomical etc.) between the left and right lungs, the infusions of pinocembrin were randomized between the left and right caudal lung segments. Half the animals (5 sheep) received pinocembrin to the right caudal lung segments, while the other 5 sheep received pinocembrin to the left caudal lung segments. The right medial lung segment was left untreated and used for healthy lung control tissue which was sampled at autopsy (FIG. 2).\nFollowing euthanasia, the lungs were removed, and targeted lung-segments identified and carefully dissected free from surrounding tissue. Individual segments were then inflated with a 1:1 mixture of Optimal Cutting Temperature Compound (OCT, ProSciTech Ltd Pty) and sterile PBS solution, under pressure of approximately 20 cm/H2O. Several serial transverse sections of the inflated segment were fixed in 10% neutral-buffered formalin and processed in paraffin for histopathological assessment. Remaining lung slices were embedded in OCT and frozen in cryo-moulds on aluminium boats floating on liquid nitrogen for immunochemistry analyses.\nParaffin-embedded tissue sections (5 μm) were stained with haematoxylin and eosin Y (H&E) for general histology and with Masson's trichrome staining to identify changes to collagen content within the lung parenchyma.\nHistopathology of the lung parenchyma was assessed using a semi-quantitative scoring system as outline in Example 1 herein. […] For each H&E stained section, 10 consecutive, non-overlapping fields at ×20 magnification were graded based on the scoring criteria for fibrosis, inflammation and overall pathology scores as outlined in Example 1 herein. The areas were selected away from large airways and major blood vessels. Scores from all ten fields were then averaged to give representative scores for the parameters assessed in the sectioned lung segment."}, "[2]": {"system": "sheep model for pulmonary fibrosis, bleomycin-injured lung segments", "assay": "Example 2: Masson's trichrome assay of connective tissue content", "type": "in vivo", "source_text": "as §1\nAll sheep (n=10) in the study were challenged with 2 single doses of bleomycin (3 units) per lung segment, a fortnight apart and the animals were kept for a little over 5 weeks after the final bleomycin dose. Bleomycin is a well-known agent for inducing fibrosis in the lungs. […]\nThe degree of fibrosis was quantified by assessing the changes in overall connective tissue content within the parenchymal tissue using methods known to the skilled person. […] The images were then analysed using Image-Pro® Plus (Version 6.3 for Windows, Media Cybernetics, Bethesda, Md., USA) using the ‘colour selector’ tool to measure the area of blue-stained tissues (collagen and other connective tissues) within each field of view. […] The fraction of blue stained tissue area was expressed as a percentage per total field area (percentage of blue stained tissue area per total field area). […]"}, "[3]": {"conditions": "individual sheep data, 10 sheep"}, "[4]": {"conditions": "vs segments which received bleomycin infusion only, 4 weekly treatments of 7 mg, n=10 sheep"}}, "note": "Entries after “also recorded” stand apart in the source; their conditions may differ."}
{"smiles": "O=C1CC(c2ccccc2)Oc2cc(O)cc(O)c21", "note": "(stereo not drawn) [pinocembrin, 5,7-Dihydroxy-2-Phenyl-2,3-Dihydro-4H-Chromen-4-One]", "values": [{"measurement": "sheep having improved fibrosis scores", "setting": "[1]; [3]", "value": "eight out of ten"}, {"measurement": "sheep having improved inflammation scores", "setting": "[1]; [3]", "value": "nine out of ten"}, {"measurement": "sheep having improved overall pathology scores", "setting": "[1]; [3]", "value": "Nine out of ten"}, {"measurement": "fibrosis score (histopathology), difference", "setting": "[1]; lower than segments which received bleomycin infusion only, 4 weekly treatments of 7 mg, n=10 sheep", "value": "not statistically significant"}, {"measurement": "pathology scores (all three parameters) compared with untreated control lung segments", "setting": "[1]; pinocembrin-treated bleomycin segments vs untreated control segments, n=10 sheep", "value": "significantly higher"}, {"measurement": "inflammation score (histopathology)", "setting": "[1]; [4]", "value": "significantly lower; also recorded: significantly improved"}, {"measurement": "overall pathology score (histopathology)", "setting": "[1]; [4]", "value": "significantly lower; also recorded: significantly improved"}, {"measurement": "sheep with decreased percentage blue values", "setting": "[2]; individual sheep data, vs bleomycin injury without pinocembrin, 10 sheep", "value": "nine out of ten"}, {"measurement": "percentage blue staining, Masson's Trichrome stained connective tissue", "setting": "[2]; vs bleomycin-infused lung without pinocembrin, 4 weekly treatments of 7 mg, n=10 sheep", "value": "significantly reduces; also recorded: significant decrease; also recorded: significantly lower"}]}
